From patent US12291513B2, “Pyridinium derivatives made by hydrothermal synthesis for use as anolytes in electrochemical cells” (Wisconsin Alumni Research Foundation, priority 2021, dated 2025)
Read-outs that look alike come from different tables or passages of the source. Marks after values point to notes of the source that are not given here.

Columns and labels:
[1] = Cyclic voltammetry (formal potentials, Randles-Sevcik diffusion coefficients); type: physicochemical
Experimental: (§1) CV and EIS experiments were ran using a PalmSens4 potentiostat with the PSTrace software. Electrochemical experiments were performed in 1.0 M NaCl supporting electrolyte using 15 mM of active material at room temperature (18° C.). Formal potentials for the redox couples were estimated by taking the average potential between the cathodic and anodic peak. Diffusional behavior was investigated by varying the scan rate between 10-100 mV·s^−1 for the first electron reduction and 50-200 mV·s^−1 for the second electron reduction, and the diffusion constants of the reduced and oxidized states (D^R and D^O) were determined via the Randles-Sevcik equation assuming ideal reversible behavior (FIG. 12D). Potentiostatic EIS measurements were used for determination of a combined diffusional constant of the reduced and oxidized states (D^EIS) and of the standard electron kinetic rate constant (k^o). These EIS measurements were performed at the formal reduction potential (held for 30 seconds before measurement) in which the concentration of the two redox states at the electrode surface were assumed to be the same and equal to half of the initially prepared redox species concentration.
(§2) A glassy carbon working electrode (CH Instruments, 0.0707 cm^2), a saturated calomel reference electrode (SCE, CH Instruments, +0.241 V vs. SHE), and a platinum wire counter electrode were used for both CV and EIS measurements. The working electrode was polished with 1 μm, 0.3 μm, and 0.05 μm alumina slurry successively. All electrodes were rinsed with deionized water in between measurements.
CVs were taken at various scan rates in order to determine the diffusion coefficients via the Randles-Sevcik relation (Eqn. 1) where ip is the peak current in Amps, n is number of electrons transferred, F is Faraday's constant, A is electrode surface area in cm^2, C is the redox species concentration in mole·cm^−3, R is the ideal gas constant, T is temperature, D is the diffusion coefficient, and v is scan rate in V/s. The anodic peak current […] determines the diffusion coefficient of the reduced state (D^R) while the cathodic peak current (ip,a) determines the diffusion coefficient of the oxidized state (D^O). ip=0.4463n^3/2·F^3/2·A·C·R^−1/2·T^−1/2·D^1/2·v^1/2 Eqn. 1

[2] = Electrochemical impedance spectroscopy (EIS); type: physicochemical; conditions: for EIS D / EIS i^0 / EIS k^0: Example 2
Experimental: as §1, §2
Potentiostatic EIS measurements were taken at the formal potential in which the reduction and oxidation processes are at equilibrium and the concentrations of the reduced and oxidized states can be assumed equal. This permitted simple calculation of the standard kinetic rate constant (k^o) via Eqn. 2 where R is the ideal gas constant, T is temperature, n is number of electrons, RCT is the charge-transfer resistance, F is Faraday's constant, A is the electrode surface area in cm^2, and C is the concentration of either the oxidized or reduced form at the electrode surface in mole cm^−3 (which is assumed to be half of the initially prepared redox species concentration, C═C^O═C^R=0.5 Cinitial).
A combined diffusion coefficient of the reduced and oxidized state (D^EIS) can also be determined using Eqn. 3, where σ is the Warburg diffusional impedance variable and all other variables have the previously defined meaning.
RCT and σ can be determined by fitting the impedance spectrum to the ideal Randles equivalent circuit for a 3-electrode system where Ru is the uncompensated resistance between the working and reference electrode, RCT is the charge transfer resistance between the working electrode and the redox species, WD is the Warburg diffusional element, and CPE is the constant phase element that represents capacitive behavior of the working electrode.
The raw data was fitted based on this equivalent circuit using the Z-Fitting tool on the PSTrace software and with the Levenberg-Marquardt algorithm across the entire measured frequency range. For the second redox state, D2^EIS were 3.6×10^−6 cm^2·s^−1 and 3.8×10^−6 cm^2·s^−1 and k2^o were 0.13 cm·s^−1 and 0.23 cm·s^−1 for Dex-Vi and BTMAP-Vi, respectively.

[3] = same electrolyte conditions; cited from earlier work
[4] = Selemion DSV membrane; cited from earlier work
[5] = cited from earlier work; for Anolyte-limiting RFB Stability / RFB Viologen Molarity (1e^−): Table 1, comparison anolytes
Solubility in pure water = type: physicochemical; conditions: Example 2
Experimental: A measured amount of Dex-Vi was partially dissolved in pure water. The solution was then centrifuged. The supernatant was decanted, and the volume was measured. The remainder of the solid was dried in a vacuum oven and weighed. Finally, the weight of the remaining Dex-Vi was subtracted from the initial added mass to obtain the amount dissolved in the supernatant, permitting calculation of the maximum soluble concentration.

Viscosity (rheometer) = type: physicochemical; conditions: 1M, 25° C.
Experimental: Viscosity measurements were carried out using an Ares G2 rheometer (TA Instruments) with an advanced Peltier system at 25° C.

Degradation in 1M KOH = type: physicochemical
[6] = Table 1, MV; cited from earlier work
[7] = Table 1, MV; cited from earlier work; remark: listed apart in the source

Row | Structure (SMILES) | Water Solubility (Solubility in pure water) | Viscosity at 1M, 25° C. (Viscosity (rheometer)) | EIS D [2] | EIS i^0 [2] | EIS k^0 [2] | Degradation in 1M KOH, k (Degradation in 1M KOH) | also measured
1 | C[N+](C)(C)CCC[n+]1ccc(-c2cc[n+](CCC[N+](C)(C)C)cc2)cc1.[Cl-].[Cl-].[Cl-].[Cl-] [BTMAP-Vi, bis(3-trimethylammonio)propyl viologen tetrachloride, reference compound] |  |  |  |  |  |  | first electron formal potential (E1^0) ([1]; 15 mM in 1.0 M NaCl, 18° C.): −0.349 V vs. SHE; E1^0 ([1]; Table 1): −0.349 V vs. SHE; E2^0 ([1]; Table 1): −0.713 V vs. SHE; reduced state diffusion coefficient (D1^R) ([1]; first redox state, 3+ species): 2.7×10^−6 cm^2·s^−1; oxidized state diffusion coefficient (D1^O) ([1]; first redox state, 4+ species): 2.4×10^−6 cm^2·s^−1; D2^O ([1]; second redox state): 2.3×10^−6 cm^2·s^−1; D2^R ([1]; second redox state): 2.5×10^−6 cm^2·s^−1; second electron formal potential (E2^0) ([1]; vs. SHE, 15 mM in 1.0 M NaCl, 18° C.): −0.713 V; k1^0 ([2]; Table 1): 0.089 cm/s; combined diffusion coefficient (D1^EIS) ([2]; first reduction): 4.1×10^−6 cm^2·s^−1; standard rate constant (k1^0) ([2]; first reduction): 0.089 cm/s; D2^EIS ([2]; second redox state): 3.8×10^−6 cm^2·s^−1; k2^o ([2]; second redox state): 0.23 cm/s; reported symmetric cell decay rate [3]: 0.0016 % per day; permeance, reported value [4]: 6.7×10^−10 cm^2·s^−1; reported concentration when both electrons are utilized ([5]; DeBruler et al., 2017): 0.25 M; Anolyte-limiting RFB Stability [5]: 36.5% decay/year; RFB Viologen Molarity (1e^−) [5]: 1.5
2 | OCCCC[n+]1ccc(-c2cc[n+](CCCCO)cc2)cc1.[Cl-].[Cl-] [ButOH-Vi] | 1360 mM | 1.6 cP | 2.36E−05 cm^2/s | 1.25E−05 A | 0.000244 cm/s |  | 
3 | C[N+](C)(C)CC(O)C[n+]1ccc(-c2cc[n+](CC(O)CO)cc2)cc1.[Cl-].[Cl-].[Cl-] (centres unmarked) [Dex-DiOH-Vi] | 1730 mM | 3.9 cP | 5.562E−06 cm^2/s | 6.20E−03 A | 0.121 cm/s | 4.06e-06 s⁻¹ | 
4 | C[N+](C)(C)CC(O)C[n+]1ccc(-c2cc[n+](CC(O)CS(=O)(=O)[O-])cc2)cc1.[Cl-].[Cl-] (centres unmarked) [Dex-SHOP-Vi] | 1270 mM |  | 4.497E−06 cm^2/s | 1.57E−03 A | 0.0307 cm/s |  | 
5 | O=S(=O)([O-])CC[n+]1ccc(-c2cc[n+](CC(O)CO)cc2)cc1.[Cl-] (centres unmarked) [DiOH-EtS-Vi] | 1260 mM | 2.9 cP | 8.134E−06 cm^2/s | 7.76E−03 A | 0.152 cm/s | 4.4e-06 s⁻¹ | 
6 | O=S(=O)([O-])CC(O)C[n+]1ccc(-c2cc[n+](CC(O)CO)cc2)cc1.[Cl-] (centres unmarked) [DiOH-SHOP-Vi] | <500 mM |  | 5.419E−06 cm^2/s | 4.06E−03 A | 0.0794 cm/s |  | 
7 | OCC(O)C[n+]1ccc(-c2cc[n+](CC(O)CO)cc2)cc1.[Cl-].[Cl-] (centres unmarked) [DiOH-Vi] | 1990 mM | 3.0 cP | 6.622E−06 cm^2/s | 1.14E−03 A | 0.0222 cm/s | 2.296e-06 s⁻¹ | 
8 | OCC[n+]1ccc(-c2cc[n+](CCO)cc2)cc1.[Cl-].[Cl-] [EtOH-Vi] | 2510 mM | 2.4 cP | 9.868E−06 cm^2/s | 4.53E−03 A | 0.0885 cm/s |  | 
9 | O=S(=O)([O-])CC[n+]1ccc(-c2cc[n+](CCS(=O)(=O)[O-])cc2)cc1 [EtS-Vi] | 530 mM |  | 5.2921E−06 cm^2/s | 3.47E−03 A | 0.0677 cm/s |  | 
10 | C[n+]1ccc(-c2cc[n+](C)cc2)cc1 [MV] |  |  |  |  |  |  | E1^0 [6]: −0.450/NA V vs. SHE; Anolyte-limiting RFB Stability [5]: >547.5%* % decay/year; RFB Viologen Molarity (1e^−) [5]: 0.5; k1^0 [7]: 0.00028 cm/s
